The text below walks through data of patent publication US12285407B2, “Bis-indolylmethane derivatives and uses thereof” (The University of The West Indies, priority 2018, dated 2025).

Molecules are shown by their SMILES.

Data set [1] relates to Streptococcus pyogenes ATCC 19615. In words: Broth microdilution MIC of SP-BIMs. It is filed as cell-based. Particulars: ATCC19615, SP-BIM alone, read-out: MIC Streptococcus pyogenes ATCC 19615.
The test system of data set [2] is Bacillus cereus ATCC 14579. Description: Broth microdilution MIC of SP-BIMs. Format: cell-based. The following applies: ATCC14579, SP-BIM alone, read-out: MIC Bacillus cereus ATCC 14579.
The test system of data set [3] is Enterococcus faecium ATCC 19434. In words: Broth microdilution MIC of SP-BIMs. Format: cell-based. Particulars: ATCC19434, SP-BIM alone, read-out: MIC Enterococcus faecium ATCC 19434.
For data set [4], the system named is Corynebacterium diphtheriae ATCC 27010. Description: Broth microdilution MIC of SP-BIMs. Format: cell-based. Particulars: ATCC27010, SP-BIM alone, read-out: MIC Corynebacterium diphtheriae ATCC 27010.
The subject of data set [5] is Escherichia coli ATCC 35218. In words: Broth microdilution MIC of SP-BIMs. Format: cell-based. Particulars: ATCC35218, SP-BIM alone, read-out: MIC Escherichia coli ATCC 35218. On the technique in general: Broth dilution looks for growth in wells or tubes with falling amounts of substance.
The test system of data set [6] is Pseudomonas aeruginosa ATCC 27853. In words: Broth microdilution MIC of SP-BIMs. Format: cell-based. The following applies: ATCC27853, SP-BIM alone, read-out: MIC Pseudomonas aeruginosa ATCC 27853.
Data set [7] concerns Candida albicans ATCC 22972. Description: Broth microdilution MIC of SP-BIMs. The following applies: ATCC22972, SP-BIM alone, read-out: MIC Candida albicans ATCC 22972. Format: cell-based.
The test system of data set [8] is reference pathogen strains. In words: Checkerboard synergy study, summary over pathogens. It is filed as cell-based. The following applies: checkerboard with SP-BIM 13.
In data set [9] the test system is α-hemolysin production in Staphylococcus aureus. Format: cell-based.
A further data set in a line: in vitro. Particulars: human.
The subject of data set [10] is sarA, agrA, RNA III, mecA, blaZ and fnbA genes. Description: Real time gene expression analysis in MRSA cells. The following applies: MRSA cells exposed to SP-BIM 13 only, or SP-BIM 13 in combination with ampicillin; 5 and 10 μg mL^−1.

In general, MIC refers to the least concentration at which growth counts as inhibited. Take `Oc1cc(C(c2c[nH]c3ccccc23)c2c[nH]c3ccccc23)cc(O)c1O` [SP-BIM 13, 5-(di(1H-indol-3-yl)methyl)benzene-1,2,3-triol]: the MIC in data set [1] is 125 µg/mL; in data set [2], 125 µg/mL; in data set [3], 125 µg/mL; in data set [4], more than 250 µg/mL; in [5] it was more than 250 µg/mL; in [6] it was 250 µg/mL. Further, the minimum inhibitory concentration (MIC) in data set [7] stood at 250 µg/mL. The “reduction of most antibiotic MICs” value in [8] (Gram-positive and Gram-negative pathogens) is reported as “reduced by tenfold or more”. Also, in data set [8], the “interaction effect in combinations with trimethoprim” value is recorded as “antagonistic”. In [9], the “lysis of RBCs” value is given as “less than 50%”. In the data set “in vitro”, this molecule gave a CC50 of 750 µM. Also, in [10], the “expression of both the downstream and regulator genes” value is given as “significantly reduced”.
